What all share (test): Biofilm inhibition assay (crystal violet)
One test concerns MRSA Strain 1770. The class given is cell-based, Staphylococcus aureus. The following applies: for inhibition at 5 µM / inhibition at 40 µM: Staphylococcus aureus, read-out: % Biofilm Inhibition (5/40 μM). Here is the method: (§1) General Information. Methicillin-resistant Staphylococcus aureus (MRSA) strains were obtained from the Laboratory of Professor Christian Melander (NCSU) ATCC (33591, BAA 44, BAA 1685, BAA 1770, BAA 43 300) and colonies were grown on solid media as instructed. Mueller-Hinton broth (MHB, 211443-BD), tryptic soy broth (TSB, Remel: R455052) and D-glucose (CAS: 492-62-6) were purchased from Fisher Scientific. Tryptic soy agar (TSA, cat. #22091) and Linezolid (cat. # P70014) were purchased from Sigma-Aldrich. Bacteria for biofilm inhibition and dispersion assays were cultured overnight in TSBG (tryptic soy broth with 0.5% glucose supplement). All assays were run in duplicate and repeated at least two separate times for MIC assays and at least four separate times for biofilm inhibition and dispersion assays. All compounds were dissolved molecular biology grade DMSO as 100 mM stock solutions and further diluted to 10 and 1 mM stock solutions as needed. Optical densities were measured using a Thermo Scientific Genesys 20 spectrophotometer. Data for biofilm inhibition and dispersion assays was collected using a BioTek ELx808 Microplate Reader. All graphs were generated and analyzed using GraphPad Prism 7.
(§2) Biofilm Inhibition Assay. Studies were performed using the standard method described in S. A. Rogers and C. Melander, Angew Chem Int Ed, 2008, 47, 5229-5231. Briefly, biofilm inhibition assays were performed by taking an overnight culture of bacterial strain and subculturing it at an OD600 of 0.01 into the necessary growth liquid medium (LB for A. baumannii, LBNS for P. aeruginosa, Stainer-Scholte medium that was supplemented with 10 μL/mL of 100× nutrient complex for B. bronchiseptica and TSB w/0.3% glucose for S. aureus) for the strain. The compound being tested was then added at a predetermined concentration and then aliquoted (100 μL) into the wells of a 96-well PVC microtiter plate (wells not used for samples are filled with 100 μL of de-ionized water). Plates were then wrapped in GLAD Press n' Seal and incubated under stationary conditions at 37° C. After 24 hours, the media was discarded from the wells and the plates were washed thoroughly with tap water. Plates were then stained with 100 μL of 0.1% solution of crystal violet (CV) and then incubated at an ambient temperature for 30 minutes. Sample plates were then washed with tap water again and the remaining stain was solubilized with 200 μL of 95% ethanol. Biofilm inhibition was quantitated by measuring the OD540 for each well by transferring 125 μL of the solubilized CV stain into a polystyrene microtiter dish for analysis. Biofilm inhibition was quantified by measuring the OD540 of each well and calculated as a percentage of the control (no compound); a negative control lane wherein no biofilm was formed served as a background and was subtracted out.
(§3) Percent inhibition was then plotted against concentration in Prism 7. Each of the four experiments were plotted separately and analyzed by a normalized nonlinear regression. The IC50 values reported represent an arithmetic mean of the four IC50 values. Biofilm data represent four separate experiments, with each experiment performed in duplicate (average of 8 data points for each concentration tested, unless otherwise noted)

The test system of another test is MRSA ATCC BAA-44. The class given is cell-based, Staphylococcus aureus. The following applies: for IC50: MRSA ATCC BAA-44; for inhibition at 5 µM: MRSA ATCC BAA 44; for dose dependence of biofilm inhibition (in words): relative to MIC. As for the experimental part: as §1, §2, §3
The subject of another test is MRSA Strain 1685. The class given is cell-based. The following applies: Staphylococcus aureus, read-out: % Biofilm Inhibition (5/40 μM). As for the experimental part: as §1, §2, §3
The subject of the next test is MRSA Strain 43300. The class given is cell-based. The following applies: Staphylococcus aureus, read-out: % Biofilm Inhibition (5/40 μM). As for the experimental part:
as §1, §2, §3

Consider 2 molecules from patent US10822315B2, “5-benzylidene-4-oxazolidinones” (NORTH CAROLINA STATE UNIVERSITY, priority 2016, dated 2020).

The term IC50 denotes the concentration that gives 50% inhibition. Read a low IC50 as greater potency in that assay.

As for `CCCCC(Cl)(Cl)C1NC(=O)/C(=C/c2ccc(C(F)(F)F)cc2)O1` (stereo not drawn) [Compound 1, (Z)-2-(1,1-dichloropentyl)-5-(4-(trifluoromethyl)benzylidene)oxazolidin-4-one], the inhibition at 5 µM in the test with MRSA Strain 1770 was 49%; in the test with MRSA ATCC BAA-44 (Staphylococcus aureus), 89%; in the test on MRSA Strain 1685, 45%; in the test with MRSA Strain 43300, 59%. Further, the inhibition at 40 µM in the test with MRSA Strain 1770 stood at 66%; in the test with MRSA Strain 1685 it was 66%; in the test with MRSA Strain 43300, 54%. In addition, the values for the half-maximal inhibitory concentration (IC50) in the test with MRSA ATCC BAA-44 and with MRSA ATCC BAA-44 (Staphylococcus aureus) were 1 µM and 0.78 µM, respectively. Besides, the “dose dependence of biofilm inhibition (in words)” value with MRSA ATCC BAA-44 is listed as “dose-dependent biofilm inhibition at concentrations well below their MIC”.

Consider `O=C1NC(C(Cl)(Cl)Cc2ccccc2)O/C1=C\c1ccc(C(F)(F)F)cc1` (stereo not drawn) [Compound 2, (Z)-2-(1,1-dichloro-2-phenylethyl)-5-(4-(trifluoromethyl)benzylidene)oxazolidin-4-one], for which, in the test on MRSA Strain 1770, the “biofilm inhibition activity (in words)” value is listed as “virtually no activity”, the inhibition at 5 µM was 3% and the inhibition at 40 µM was -16%. In the test with MRSA ATCC BAA-44, half-maximal inhibition (IC50) required 1.4 µM and the “dose dependence of biofilm inhibition (in words)” value was “dose-dependent biofilm inhibition at concentrations well below their MIC”. In the test with MRSA ATCC BAA-44 (Staphylococcus aureus), the inhibition at 5 µM was determined as 82% and inhibition was half-maximal at 1.2 µM (IC50). Also, in the test on MRSA Strain 1685, the inhibition at 5 µM is 19% and the inhibition at 40 µM was 17%. In addition, in the test with MRSA Strain 43300, the inhibition at 5 µM turned out to be 41% and the inhibition at 40 µM worked out at 63%.
